# Data published in the supplement of paper PMC10307832.
# Compound: C[C@@]1(C(=O)Nc2ccc(F)nc2)CCCN1c1nc(Nc2cc(C3CC3)n[nH]2)c2cccn2n1 + Cc1nc(Nc2ncc(C(=O)Nc3c(C)cccc3Cl)s2)cc(N2CCN(CCO)CC2)n1 [Dasatinib] (partner 0.075 µM)
# Assay: relative viability (nuclei count vs DMSO), 5 days (fraction); higher = more cells survive
# Details: first compound 0.04 µM
# Summary of the method: (§1)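 Lung cancer cell lines, seeded in 1536-well plates, were treated the following day by pin tool with a single drug or with five library-drug doses (not always all listed) in √10 steps on top of a fixed anchor-drug dose. Cells were fixed and nuclei stained in one step after 5 days, and nuclei were counted. Relative viability is the nuclei count for treated wells divided by that for vehicle wells, reported as medians of duplicate plates.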
row,Cell Line,relative viability
1,NCI-H2342,0.356
2,NCI-H1623,0.465
3,NCI-H727,0.278
4,NCI-H1650,0.313
5,NCI-H1993,0.523
6,SW 1573,0.494
7,NCI-H838,0.299
8,LCLC-103H,0.412
9,NCI-H520,0.207
10,NCI-H2126,0.346
11,EMC-BAC-2,0.242
12,NCI-H2085,0.289
13,HCC-366,0.374
14,NCI-H1666,0.709
15,NCI-H596,0.552
16,LK-2,0.217

row,Cell Line,relative viability
1,NCI-H2087,0.727
2,SK-MES-1,0.27
3,H3255,0.36
4,COR-L23,0.433
5,COR-L 105,0.3
6,LOU-NH91,0.461
7,NCI-H2170,0.572
8,NCI-H522,0.856
9,SW 900,0.555
10,NCI-H1395,0.374
11,NCI-H1792,0.283
12,NCI-H1793,0.448
13,NCI-H1563,0.404
14,NCI-H1944,0.173
15,ABC-1,0.51
16,NCI-H358,0.128

# Same assay, conditions: first compound 0.1265 µM
row,Cell Line,relative viability
1,NCI-H2342,0.26
2,NCI-H1623,0.247
3,NCI-H727,0.182
4,NCI-H1650,0.266
5,NCI-H1993,0.454
6,SW 1573,0.275
7,NCI-H838,0.198
8,LCLC-103H,0.35
9,NCI-H520,0.176
10,NCI-H2126,0.242
11,EMC-BAC-2,0.212
12,NCI-H2085,0.309
13,HCC-366,0.141
14,NCI-H1666,0.613
15,NCI-H596,0.439
16,LK-2,0.184

row,Cell Line,relative viability
1,NCI-H2087,0.568
2,SK-MES-1,0.244
3,H3255,0.361
4,COR-L23,0.334
5,COR-L 105,0.208
6,LOU-NH91,0.449
7,NCI-H2170,0.564
8,NCI-H522,0.628
9,SW 900,0.32
10,NCI-H1395,0.34
11,NCI-H1792,1.06
12,NCI-H1793,0.36
13,NCI-H1563,0.413
14,NCI-H1944,0.154
15,ABC-1,0.395
16,NCI-H358,0.123

# Same assay, conditions: first compound 0.4 µM
row,Cell Line,relative viability
1,NCI-H2342,0.294
2,NCI-H1623,0.438
3,NCI-H727,0.273
4,NCI-H1650,0.249
5,NCI-H1993,0.356
6,SW 1573,0.213
7,NCI-H838,0.187
8,LCLC-103H,0.237
9,NCI-H520,0.176
10,NCI-H2126,0.262
11,EMC-BAC-2,0.136
12,NCI-H2085,0.187
13,HCC-366,0.201
14,NCI-H1666,0.486
15,NCI-H596,0.415
16,LK-2,0.155

row,Cell Line,relative viability
1,NCI-H2087,0.508
2,SK-MES-1,0.159
3,H3255,0.282
4,COR-L23,0.214
5,COR-L 105,0.185
6,LOU-NH91,0.395
7,NCI-H2170,0.47
8,NCI-H522,0.775
9,SW 900,0.507
10,NCI-H1395,0.388
11,NCI-H1792,0.211
12,NCI-H1563,0.343
13,NCI-H1944,0.145
14,ABC-1,0.366
15,NCI-H358,0.103

# Same assay, conditions: first compound 1.265 µM
row,Cell Line,relative viability
1,NCI-H2342,0.264
2,NCI-H1623,0.412
3,NCI-H727,0.229
4,NCI-H1650,0.144
5,NCI-H1993,0.512
6,SW 1573,0.114
7,NCI-H838,0.213
8,LCLC-103H,0.174
9,NCI-H520,0.229
10,NCI-H2126,0.294
11,EMC-BAC-2,0.167
12,NCI-H2085,0.178
13,HCC-366,0.061
14,NCI-H1666,0.412
15,NCI-H596,0.372
16,LK-2,0.229

row,Cell Line,relative viability
1,NCI-H2087,0.389
2,SK-MES-1,0.153
3,H3255,0.235
4,COR-L23,0.219
5,COR-L 105,0.18
6,LOU-NH91,0.286
7,NCI-H2170,0.414
8,NCI-H522,0.789
9,SW 900,0.346
10,NCI-H1395,0.378
11,NCI-H1792,0.227
12,NCI-H1793,0.335
13,NCI-H1563,0.323
14,NCI-H1944,0.166
15,ABC-1,0.204
16,NCI-H358,0.124

# Compound: CC1(C)CNc2cc(NC(=O)c3cccnc3NCc3ccncc3)ccc21 [Motesanib] + Nc1nc2[nH]cc(CCc3ccc(C(=O)N[C@@H](CCC(=O)O)C(=O)O)cc3)c2c(=O)[nH]1 [Pemetrexed] (partner 0.2 µM)
# Assay: as above
# Details: first compound 0.01 µM
# Summary of the method: as §1
row,Cell Line,relative viability
1,NCI-H2342,0.8
2,NCI-H1650,0.357
3,NCI-H1993,0.452
4,SW 1573,0.764
5,NCI-H838,0.23
6,LCLC-103H,0.458
7,NCI-H520,0.577
8,NCI-H2126,0.683
9,EMC-BAC-2,0.412
10,NCI-H2085,0.895
11,HCC-366,0.189
12,NCI-H1666,0.954
13,NCI-H596,0.509
14,LK-2,0.234
15,NCI-H1648,0.707
16,SK-MES-1,0.912
17,H3255,0.552
18,COR-L23,0.186
19,COR-L 105,1.19
20,LOU-NH91,0.357
21,NCI-H2170,0.258
22,HCC-44,0.656
23,NCI-H522,1.01
24,SW 900,0.459
25,NCI-H1395,0.923
26,NCI-H1792,0.778
27,NCI-H1793,0.862
28,NCI-H1563,0.679
29,NCI-H1944,0.58
30,NCI-H358,0.161

# Same assay, conditions: first compound 0.03162 µM
row,Cell Line,relative viability
1,NCI-H2342,0.748
2,NCI-H1650,0.367
3,NCI-H1993,0.623
4,SW 1573,0.833
5,NCI-H838,0.248
6,LCLC-103H,0.435
7,NCI-H520,0.594
8,NCI-H2126,0.715
9,EMC-BAC-2,0.408
10,NCI-H2085,0.969
11,HCC-366,0.154
12,NCI-H1666,0.831
13,NCI-H596,0.503
14,LK-2,0.288
15,SK-MES-1,0.953
16,H3255,0.59
17,COR-L23,0.198
18,COR-L 105,0.96
19,LOU-NH91,0.37
20,NCI-H2170,0.255
21,HCC-44,0.653
22,NCI-H522,1.05
23,SW 900,0.416
24,NCI-H1395,0.815
25,NCI-H1792,0.859
26,NCI-H1793,0.894
27,NCI-H1563,0.82
28,NCI-H1944,0.628
29,NCI-H358,0.162

# Same assay, conditions: first compound 0.1 µM
row,Cell Line,relative viability
1,NCI-H2342,0.795
2,NCI-H1650,0.33
3,NCI-H1993,0.533
4,SW 1573,0.864
5,NCI-H838,0.26
6,LCLC-103H,0.429
7,NCI-H520,0.51
8,NCI-H2126,0.615
9,EMC-BAC-2,0.471
10,NCI-H2085,0.852
11,HCC-366,0.18
12,NCI-H1666,0.816
13,NCI-H596,0.444
14,LK-2,0.208
15,NCI-H2087,0.657
16,SK-MES-1,1.03
17,H3255,0.602
18,COR-L23,0.187
19,COR-L 105,1.34
20,LOU-NH91,0.373
21,NCI-H2170,0.257
22,HCC-44,0.788
23,NCI-H522,0.955
24,SW 900,0.356
25,NCI-H1395,0.826
26,NCI-H1792,0.791
27,NCI-H1793,0.843
28,NCI-H1563,0.871
29,NCI-H1944,0.565
30,NCI-H358,0.169

# Same assay, conditions: first compound 0.3162 µM
row,Cell Line,relative viability
1,NCI-H2342,0.794
2,NCI-H1650,0.349
3,NCI-H1993,0.641
4,SW 1573,0.882
5,NCI-H838,0.231
6,LCLC-103H,0.505
7,NCI-H520,0.586
8,NCI-H2126,0.695
9,EMC-BAC-2,0.412
10,NCI-H2085,0.851
11,HCC-366,0.147
12,NCI-H1666,0.868
13,NCI-H596,0.306
14,LK-2,0.256
15,NCI-H2087,0.73
16,NCI-H1648,0.674

row,Cell Line,relative viability
1,SK-MES-1,0.943
2,H3255,0.589
3,COR-L23,0.197
4,COR-L 105,1.12
5,LOU-NH91,0.406
6,NCI-H2170,0.269
7,HCC-44,0.724
8,NCI-H522,0.844
9,SW 900,0.301
10,NCI-H1395,0.881
11,NCI-H1792,0.785
12,NCI-H1793,0.856
13,NCI-H1563,0.644
14,NCI-H1944,0.554
15,NCI-H358,0.164

# Same assay, conditions: first compound 1 µM
row,Cell Line,relative viability
1,NCI-H2342,0.912
2,NCI-H1650,0.425
3,NCI-H1993,0.57
4,SW 1573,0.854
5,NCI-H838,0.239
6,LCLC-103H,0.458
7,NCI-H520,0.643
8,NCI-H2126,0.655
9,EMC-BAC-2,0.524
